Legend:
[1] = Compound was tested for inhibitory activity against tryptase; design: species or system Homo sapiens
[2] = molecular target: Prothrombin (Homo sapiens, UniProt P00734); test: Inhibition of thrombin
[3] = molecular target: T1, Tryptase (Homo sapiens, UniProt Q9BZJ3+Q15661+Q9NRR2); test: Inhibition of tryptase activity; format: protein assay
[4] = molecular target: T1, Tryptase; test: Compound was tested for inhibitory activity against tryptase; Not determined (value more than […]); format: protein assay
[5] = test system: Rattus norvegicus; test: Effect of compound on PCA reaction in rats at a i.v. dose of 1 mg/kg 1 hr prior to antigen challenge; format: functional; conditions: route intravenous

N=C(N)c1ccc2oc(C(=O)N3CCN(C(=O)CCC(=O)N4CCN(C(=O)c5cc6cc(C(=N)N)ccc6o5)CC4)CC3)cc2c1
Ki [1]: 0.015 µM
Ki [2]: 51 µM

N=C(N)c1ccc2oc(C(=O)N3CCN(C(=O)COc4ccc(OCC(=O)Nc5ccc(-c6c[nH]cn6)cc5)cc4)CC3)cc2c1
Ki [1]: 0.0068 µM
Ki [2]: 5.3 µM

N=C(N)NCCCCC(=O)N1CCN(C(=O)COc2ccc(OCC(=O)N3CCN(C(=O)CCCCNC(=N)N)CC3)cc2)CC1
Ki [3]: 80000 nM

N=C(N)c1ccc2oc(C(=O)N3CCN(C(=O)COc4ccc(OCC(=O)N5CCNCC5)cc4)CC3)cc2c1
Ki [3]: 67 nM

N=C(N)c1ccc2oc(C(=O)N3CCN(C(=O)COc4ccccc4)CC3)cc2c1
Ki [3]: 3000 nM

N=C(N)c1ccc2oc(C(=O)N3CCN(C(=O)CCCC(=O)N4CCN(C(=O)c5cc6cc(C(=N)N)ccc6o5)CC4)CC3)cc2c1
Ki [1]: 0.0088 µM
Ki [2]: 32 µM

N=C(N)c1ccc2oc(C(=O)N3CCN(C(=O)CCCCC(=O)N4CCN(C(=O)c5cc6cc(C(=N)N)ccc6o5)CC4)CC3)cc2c1
Ki [1]: 0.00086 µM
Ki [2]: 23 µM

N=C(N)c1ccc2oc(C(=O)N3CCN(C(=O)CC(=O)N4CCN(C(=O)c5cc6cc(C(=N)N)ccc6o5)CC4)CC3)cc2c1
Ki [1]: 0.65 µM
Ki [2]: 82 µM

N=C(N)c1ccc2oc(C(=O)N3CCN(C(=O)COc4ccc(OCC(=O)N5CCCCC5)cc4)CC3)cc2c1
Ki [3]: 60 nM

O=C(CCCC(=O)N1CCNCC1)C(=O)N1CCN(C(=O)COc2ccc(OCC(=O)N3CCN(C(=O)C(=O)CCCC(=O)N4CCNCC4)CC3)cc2)CC1
Ki [4]: Value more than 1x10^4

N=C(N)Nc1ccc2oc(C(=O)N3CCN(C(=O)COc4ccc(OCC(=O)N5CCN(C(=O)c6cc7cc(NC(=N)N)ccc7o6)CC5)cc4)CC3)cc2c1
Ki [2]: 24 µM
Ki [3]: 1100 nM

CN(C)C(=N)c1ccc2oc(C(=O)N3CCN(C(=O)COc4ccc(OCC(=O)N5CCN(C(=O)c6cc7cc(C(=N)N(C)C)ccc7o6)CC5)cc4)CC3)cc2c1
Ki [3]: 6600 nM

N=C(N)c1ccc2oc(C(=O)N3CCN(C(=O)COc4ccccc4OCC(=O)N4CCN(C(=O)c5cc6cc(C(=N)N)ccc6o5)CC4)CC3)cc2c1
Ki [2]: 88 µM
Ki [3]: 1.1 nM

N=C(N)c1ccc2oc(C(=O)N3CCN(C(=O)CCCCCCC(=O)N4CCN(C(=O)c5cc6cc(C(=N)N)ccc6o5)CC4)CC3)cc2c1
Ki [3]: 0.12 nM

N=C(N)N1CCc2sc(C(=O)N3CCN(C(=O)COc4ccc(OCC(=O)N5CCN(C(=O)c6cc7c(s6)CCN(C(=N)N)C7)CC5)cc4)CC3)cc2C1
Ki [2]: 29 µM
Ki [3]: 0.046 nM

N=C(N)c1ccc2sc(C(=O)N3CCN(C(=O)COc4ccc(OCC(=O)N5CCN(C(=O)c6cc7cc(C(=N)N)ccc7s6)CC5)cc4)CC3)cc2c1
Ki [2]: 22 µM
Ki [3]: 0.028 nM

N=C(N)NCCCCCCC(=O)N1CCN(C(=O)COc2ccc(OCC(=O)N3CCN(C(=O)CCCCCCNC(=N)N)CC3)cc2)CC1
Ki [3]: 13000 nM

O=C(COc1ccc(OCC(=O)N2CCN(C(=O)CC(=O)N3CCNCC3)CC2)cc1)N1CCN(C(=O)CC(=O)N2CCNCC2)CC1
Ki [3]: 13000 nM

N=C(N)NCCCCCC(=O)N1CCN(C(=O)COc2ccc(OCC(=O)N3CCN(C(=O)CCCCCNC(=N)N)CC3)cc2)CC1
Ki [3]: 23000 nM

N=C(N)c1ccc2oc(C(=O)N3CCN(C(=O)CCCCCCCC(=O)N4CCN(C(=O)c5cc6cc(C(=N)N)ccc6o5)CC4)CC3)cc2c1
Ki [2]: 230 µM
Ki [3]: 0.019 nM

N=C(N)c1ccc2oc(C(=O)N3CCN(C(=O)COc4ccc(OCC(=O)NCc5ccccc5)cc4)CC3)cc2c1
Ki [1]: 0.037 µM
Ki [2]: 28 µM

O=C(COc1ccc(OCC(=O)N2CCN(C(=O)c3cc4c(s3)CCNC4)CC2)cc1)N1CCN(C(=O)c2cc3c(s2)CCNC3)CC1
Ki [3]: 970 nM

N=C(N)c1ccc2oc(C(=O)N3CCN(C(=O)COc4ccc(OCC(=O)N5CCN(C(=O)c6cc7cc(C(=N)N)ccc7o6)CC5)cc4)CC3)cc2c1
Ki [2]: 32 µM
Ki [3]: 0.057 nM

N=C(N)c1ccc2oc(C(=O)N3CCN(C(=O)N4CCN(C(=O)c5cc6cc(C(=N)N)ccc6o5)CC4)CC3)cc2c1
Ki [3]: 460 nM

N=C(N)c1ccc2oc(C(=O)N3CCN(C(=O)CO[C@H]4CCC[C@@H](OCC(=O)N5CCN(C(=O)c6cc7cc(C(=N)N)ccc7o6)CC5)CCC4)CC3)cc2c1
Ki [2]: 15 µM
Ki [3]: 0.029 nM
inhibition in vivo at 1 mg/kg [5]: 51%

N=C(NCc1ccccc1)c1ccc2oc(C(=O)N3CCN(C(=O)COc4ccc(OCC(=O)N5CCN(C(=O)c6cc7cc(C(=N)NCc8ccccc8)ccc7o6)CC5)cc4)CC3)cc2c1
Ki [3]: 1100 nM

N=C(N)c1ccc2oc(C(=O)N3CCN(C(=O)CCCCCC(=O)N4CCN(C(=O)c5cc6cc(C(=N)N)ccc6o5)CC4)CC3)cc2c1
Ki [1]: 0.0012 µM
Ki [2]: 85 µM

O=C(CCC(=O)N1CCNCC1)CC(=O)N1CCN(C(=O)COc2ccc(OCC(=O)N3CCN(C(=O)CC(=O)CCC(=O)N4CCNCC4)CC3)cc2)CC1
Ki [4]: Value more than 1x10^4

CCOC(=O)COc1ccc(OCC(=O)N2CCN(C(=O)c3cc4cc(C(=N)N)ccc4o3)CC2)cc1
Ki [3]: 210 nM

From ChEMBL document CHEMBL1131890, “Syntheses and evaluation of amidinobenzofuran derivatives as tryptase inhibitors” (Bioorg Med Chem Lett, 1999)
